Laboratory results published in patent US5240714A, “Non-digoxin-like Na^+, K^+ -ATPase inhibitory factor” (priority 1989, dated 1993).

Test system: anti-digoxin antibody
Test: digoxin radioimmunoassay (cross-reactivity with anti-digoxin antibody)
Format: binding
Conditions: at the doses tested
Experimental: Radioimmunoassay. Generally, a digoxin antibody covalently bound to the inner surface of polypropylene tubes was used, obtained from Immunochem (USA). Digoxin standards and samples were diluted 1:2 in 1.5M Tris-ClH, pH 7.5. ^125 I-digoxin (2000 μCi/μg) was used.
As stated previously, this cross reaction is not a necessary criteria for HHIF. However, this method is used to follow and evaluate digoxin-like substances in the exemplary purification procedures. An RIA commercial kit was used, purchased from Immunochem. Digoxin standards and sample preparations were diluted 1:2 in 1.5M Tris-ClH, pH 7.5. Digoxin antibodies were covalently bound to the inner surface of polypropylene tubes. After a 30 min. incubation at 20° C., tubes with sample plus I^125 -digoxin unbound radioactivity are discarded and the tubes counted by […]. Values of DLA are calculated by extrapolating from the standard curve constructed on semilogarithmic paper with plots of B/B. vs. concentration.
A radioimmunoassay method based on charcoal separation using a commercial antibody elicited in rabbit against digoxin is also used as described by Smith, T. W., et al. "Determination Of Therapeutic And Toxic Serum Digoxin Concentrations By Radioimmunoassay." The New England J Med. 1969;1212-1216.

## C[C@@H]1O[C@@H](O[C@H]2C[C@@H](O)[C@]3(CO)[C@H]4[C@H](O)C[C@]5(C)[C@@H](C6=CC(=O)OC6)CC[C@]5(O)[C@@H]4CC[C@]3(O)C2)[C@H](O)[C@H](O)[C@H]1O [ouabain]
  cross-reactivity with anti-digoxin antibody (digoxin immunoreactivity): weakly cross-reacted
